Legend:
[1] = tested on: CEM-SS cells; assay: XTT assay, cytotoxicity (IC50), CEM-SS cells; assay type: cell-based; conditions: Homo sapiens, CEM-SS, cytotoxicity, CEM-SS cells; read-out: XTT Assay IC50
Protocol: (§1) Initial anti-HIV screening was performed with CEM-SS cells and HIV-1RFusing the XTT cytoprotection assay as previously described (Weislow et al., J. National Cancer Inst. 81: 577-586, (1989)). HIV-1 isolates included common laboratory stains (RF, IIIB and MN), as well as a panel of HIV-1 clinical isolates (Cushman et al., J. Med. Chem. 37: 3040-3050, (1994)). The pyridone-resistant HIV-1A17 isolate (Nunberg et al., J. Virol., 65: 4887-4892 (1991)) was obtained from Emilio Emini at Merck Sharpe and Dohme Laboratories. Phytohemagglutinin-stimulated human peripheral blood lymphocytes (PBLs) and fresh monocyte-macrophage (Mono/MF) cultures were prepared and utilized in antiviral assays as previously described (Rice et al., Proc. Nat'l. Academy Science, USA 90: 9721-9724, (1993)); (Cushman et al., J. Med. Chem. 37: 3040-3050, (1994)). EC50 values for these cultures indicate the drug concentration that provided a 50% reduction in viral p24 production. […] The compounds can be synthesized according to the teachings of Singh et al., Sulfur Letters 8: 107-114, (1988). […] MT-2, MT-4, U1, HeLa-CD4-LTR-β-gal and 174xCEM cells were obtained from the AIDS Research and Reference Program (National Institute of Allergy and Infectious Disease, National Institutes of Health, Bethesda, Md. USA), as were the HIV-2MS and the AZT-resistant HIV-1G910-6 isolates.
(§2) Racemate and enantiomers of the cis-1,1-dioxo[1,2]dithiane-4,5-diol were synthesized and evaluated for antiviral activity in the XTT assay as described hereinabove.

[2] = tested on: HIV-1ADA; assay: antiviral assay in monocyte-macrophage cultures (p24); assay type: cell-based; conditions: Human immunodeficiency virus 1, read-out: Mo/M.PHI. EC50
Protocol: Initial anti-HIV screening was performed with CEM-SS cells and HIV-1RFusing the XTT cytoprotection assay as previously described (Weislow et al., J. National Cancer Inst. 81: 577-586, (1989)). HIV-1 isolates included common laboratory stains (RF, IIIB and MN), as well as a panel of HIV-1 clinical isolates (Cushman et al., J. Med. Chem. 37: 3040-3050, (1994)). The pyridone-resistant HIV-1A17 isolate (Nunberg et al., J. Virol., 65: 4887-4892 (1991)) was obtained from Emilio Emini at Merck Sharpe and Dohme Laboratories. Phytohemagglutinin-stimulated human peripheral blood lymphocytes (PBLs) and fresh monocyte-macrophage (Mono/MF) cultures were prepared and utilized in antiviral assays as previously described (Rice et al., Proc. Nat'l. Academy Science, USA 90: 9721-9724, (1993)); (Cushman et al., J. Med. Chem. 37: 3040-3050, (1994)). EC50 values for these cultures indicate the drug concentration that provided a 50% reduction in viral p24 production. […] The compounds can be synthesized according to the teachings of Singh et al., Sulfur Letters 8: 107-114, (1988). The 4,5-cis-dihydroxy(1,1-dioxy-1,2,-dithiohexane) compound (NSC 624151) has been abbreviated as 624151 for convenience. MT-2, MT-4, U1, HeLa-CD4-LTR-β-gal and 174xCEM cells were obtained from the AIDS Research and Reference Program (National Institute of Allergy and Infectious Disease, National Institutes of Health, Bethesda, Md. USA), as were the HIV-2MS and the AZT-resistant HIV-1G910-6 isolates. […]

[3] = tested on: monocyte-macrophage (Mo/M.PHI.) cultures; assay: cytotoxicity in monocyte-macrophage cultures; assay type: cell-based
Protocol: Initial anti-HIV screening was performed with CEM-SS cells and HIV-1RFusing the XTT cytoprotection assay as previously described (Weislow et al., J. National Cancer Inst. 81: 577-586, (1989)). HIV-1 isolates included common laboratory stains (RF, IIIB and MN), as well as a panel of HIV-1 clinical isolates (Cushman et al., J. Med. Chem. 37: 3040-3050, (1994)). The pyridone-resistant HIV-1A17 isolate (Nunberg et al., J. Virol., 65: 4887-4892 (1991)) was obtained from Emilio Emini at Merck Sharpe and Dohme Laboratories. Phytohemagglutinin-stimulated human peripheral blood lymphocytes (PBLs) and fresh monocyte-macrophage (Mono/MF) cultures were prepared and utilized in antiviral assays as previously described (Rice et al., Proc. Nat'l. Academy Science, USA 90: 9721-9724, (1993)); (Cushman et al., J. Med. Chem. 37: 3040-3050, (1994)). EC50 values for these cultures indicate the drug concentration that provided a 50% reduction in viral p24 production. […] The compounds can be synthesized according to the teachings of Singh et al., Sulfur Letters 8: 107-114, (1988). The 4,5-cis-dihydroxy(1,1-dioxy-1,2,-dithiohexane) compound (NSC 624151) has been abbreviated as 624151 for convenience. MT-2, MT-4, U1, HeLa-CD4-LTR-β-gal and 174xCEM cells were obtained from the AIDS Research and Reference Program (National Institute of Allergy and Infectious Disease, National Institutes of Health, Bethesda, Md. USA), as were the HIV-2MS and the AZT-resistant HIV-1G910-6 isolates.

[4] = tested on: HIV-1RF; assay: XTT cytoprotection (cytopathicity) anti-HIV assay, CEM-SS cells; assay type: cell-based; conditions: for antiviral activity / efficacy: in words; for EC50: Human immunodeficiency virus 1, CEM-SS, CEM-SS cells, HIV-1RF, read-out: XTT Assay EC50
Protocol: as §1, §2

[5] = biological target: T1, HIV-1 p7NC protein (Human immunodeficiency virus type 1 group M subtype B, UniProt P04591); assay: Trp37 zinc finger fluorescence assay (zinc ejection from p7NC); assay type: biochemical; conditions: in words
T1 construct: recombinant HIV-1 p7NC protein
Protocol: Fluorescence measurements of the Trp^37 residue in the C-terminal zinc finger of the recombinant HIV-1 p7NC protein were performed as previously described (Rice et al., Science 270:1194, 1995). The p7NC protein was prepared at 20 μg/ml in 10 mM sodium phosphate buffer (pH 7.0), treated with 25 μM of each compound, then after indicated time intervals the samples were diluted 1/10 in 10 mM sodium phosphate buffer (pH 7.0) and the fluorescence intensity measured. The excitation and emission wavelengths utilized with the Shimadzu RF5000 spectrofluorimeter were 280 nm and 351 nm, respectively. In an alternate assay, the zinc-selective fluorescent probe N-(6-methoxy-8quinolyl-)-p-toluenesulfonamide (TSQ, Molecular Probes, Eugene, Oreg.) originally described by Fredrickson (J. Neurosci. Meth. 20:91, 1987) was utilized to measure zinc released from the p7NC protein in vitro. Briefly, 2 μM recombinant HIV-1 p7NC protein in 10 mM sodium phosphate buffer, pH 7.0, 10% glycerol was treated with 10 μM 624151 ([…] total volume in 96-well plates), and the time-dependent increase in fluorescence was measured on a Labsystems Fluoroskan II (360 nm excitation filter and 460 nm emission filter) over a period of 2 hours. Induction of alterations of p7NC proteins within intact virions involved treatment of HIV-1MN for 1 hour at 37° C. with 25 μM test compound. Samples were centrifuged 1 hour at 4° C. under 18,000×g to pellet the virus from the drug. Virus pellets were resolved by non-reducing SDS-PAGE and analyzed by immunoblot using monospecific rabbit antisera to the purified p7NC protein.
^b The percent decrease in RFU was calculated based on measurement of
the initial fluorescence of the p7NC protein before and 10 minutes after
treatment with the 25 μM of compound at ambient temperature.
The ability of 624151 to chemically interact with the zinc fingers of the HIV-1 p7NC protein was initially determined by a fluorescence assay (Rice et al., Science 270:1194-1197, (1995)) that measures a loss in intrinsic fluorescence of the tryptophan (Trp^37) residue in the second finger of the protein that occurs upon loss of zinc from the finger (Summers et al., Protein Sci. 1:563, 1992). […] As the 624151 modifies the zinc finger thiolates and the zinc is ejected over time, the metal is bound by the TSQ fluorochrome (FIG. 1(B)).
Sodium Phosphate buffer, pH 7.0 in 1 ml was treated with 25 μM of
compound. At indicated times, the mixture was diluted 1/10 and the
relative fluorescence units (RFU) measured in a Shimadzu RF5000
spectrofluorimeter with […] and Em = 351 mn. Following
loss of zinc from the Cterminal zinc finger, the Trp37 residue folds away
from the # aqueous environment and experiences a loss of fluorescence.

EC50 [4]	Compound	IC50 [1]	EC50 [2]	IC50 [3]	antiviral activity / efficacy [4]	reactivity with the zinc fingers [5]	zinc ejection ([5]; FIG. 1(A))
	CC(=O)OCC1(COC(C)=O)CSSC1 [NSC 660167]	> 200 µM	> 100 µM	> 100 µM			
	CC(=O)O[C@H]1CSSC[C@H]1OC(C)=O [NSC 667093]	> 200 µM	> 100 µM	> 100 µM			
	OCC1(CO)CSSC1 [NSC 72270]	> 200 µM	> 100 µM	> 100 µM			
	CC(=O)O[C@@H]1CSSC[C@H]1OC(C)=O (relative stereo) [NSC 667092]	> 200 µM	> 100 µM	> 100 µM	complete abolition of antiviral activity	essentially a complete loss of reactivity with the zinc fingers	
	O[C@@H]1CSSC[C@@H]1O [NSC 667089]	20.1 µM	> 100 µM	> 100 µM			
34 µM	O=S1(=O)CC(CO)(CO)CS1 [NSC 661127]	378 µM					
3.06 µM	NC1(C(=O)O)CSSC1 [NSC 212561]	10.7 µM					
	[O-][S+]1C[C@@H](O)[C@@H](O)CS1 (relative stereo) [NSC 667090]	103 µM	> 100 µM	> 100 µM	complete abolition of antiviral activity	essentially a complete loss of reactivity with the zinc fingers	
	CC(=O)O[C@H]1CSS(=O)(=O)C[C@H]1OC(C)=O (relative stereo) [NSC 667091]	9.2 µM	25 µM	> 100 µM			
	CC(C)OC(=O)c1cc(NC(=S)OC(C)C)ccc1Cl [UC38, reference compound]						do not
	CC(=O)OCC1(COC(C)=O)CS[S+]([O-])C1 (stereo not shown) [NSC 661754]	14.3 µM	> 100 µM	> 100 µM			

Compound	EC50 [4]	IC50 [1]	EC50 [2]	IC50 [3]	antiviral activity / efficacy [4]	reactivity with the zinc fingers [5]	zinc ejection ([5]; FIG. 1(A))
CC(=O)OCC1(COC(C)=O)CSS(=O)(=O)C1 [NSC 661126]	9.8 µM	30.3 µM	21 µM	> 100 µM			

Source: patent US6046228A, “Anti-viral pharmaceutical compositions containing saturated 1,2-dithiaheterocyclic compounds and uses thereof” (priority 1999, dated 2000)
